Experimental data taken from PubChem BioAssay AID1963835 (Molecular Pharmacology Branch, DTP, NCI, 2024).
pIC50: −log10 of the molar value.

Test system: 699152-130-R-J1-PDC complex spheroid viability
Assay: Anticancer human tumor 699152-130-R-J1-PDC patient-derived pancreatic carcinoma cell line growth inhibition [POLQ]
Details: for pIC50: curve of first compound; for viability, T/C: stronger effect = lower value; active = viability on the fitted dose curve at most 10% of control; inactive = the rest
How it was run: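 PDC + HUVEC + MSC complex spheroids; POLQ inhibitors ± partner drugs; top conc. at/near clinical Cmax, else 10 microM (SN-38 1 microM), half-log dilutions; 37 degrees C, 5% CO2.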

[1] = second compound 0.0316 µM, first compound 0.00316 µM
[2] = second compound 0.0316 µM, first compound 0.01 µM
[3] = second compound 0.0316 µM, first compound 0.0316 µM
[4] = second compound 0.0316 µM, first compound 0.1 µM
[5] = second compound 0.0316 µM, first compound 0.316 µM
[6] = second compound 0.0316 µM, first compound 1 µM
[7] = second compound 0.1 µM, first compound 0.00316 µM
[8] = second compound 0.1 µM, first compound 0.01 µM
[9] = second compound 0.1 µM, first compound 0.0316 µM
[10] = second compound 0.1 µM, first compound 0.1 µM
[11] = second compound 0.1 µM, first compound 0.316 µM
[12] = second compound 0.1 µM, first compound 1 µM
[13] = second compound 0.316 µM, first compound 0.00316 µM
[14] = second compound 0.316 µM, first compound 0.01 µM
[15] = second compound 0.316 µM, first compound 0.0316 µM
[16] = second compound 0.316 µM, first compound 0.1 µM
[17] = second compound 0.316 µM, first compound 0.316 µM
[18] = second compound 0.316 µM, first compound 1 µM
[19] = second compound 1 µM, first compound 0.00316 µM
[20] = second compound 1 µM, first compound 0.01 µM
[21] = second compound 1 µM, first compound 0.0316 µM
[22] = second compound 1 µM, first compound 0.1 µM
[23] = second compound 1 µM, first compound 0.316 µM
[24] = second compound 1 µM, first compound 1 µM
[25] = second compound 3.16 µM, first compound 0.00316 µM
[26] = second compound 3.16 µM, first compound 0.01 µM
[27] = second compound 3.16 µM, first compound 0.0316 µM
[28] = second compound 3.16 µM, first compound 0.1 µM
[29] = second compound 3.16 µM, first compound 0.316 µM
[30] = second compound 3.16 µM, first compound 1 µM
[31] = second compound 10 µM, first compound 0.00316 µM
[32] = second compound 10 µM, first compound 0.01 µM
[33] = second compound 10 µM, first compound 0.0316 µM
[34] = second compound 10 µM, first compound 0.1 µM
[35] = second compound 10 µM, first compound 0.316 µM
[36] = second compound 10 µM, first compound 1 µM
[37] = second compound 0.0316 µM, first compound 3.16 µM
[38] = second compound 0.0316 µM, first compound 10 µM
[39] = second compound 0.1 µM, first compound 3.16 µM
[40] = second compound 0.1 µM, first compound 10 µM
[41] = second compound 0.316 µM, first compound 3.16 µM
[42] = second compound 0.316 µM, first compound 10 µM
[43] = second compound 1 µM, first compound 3.16 µM
[44] = second compound 1 µM, first compound 10 µM
[45] = second compound 3.16 µM, first compound 3.16 µM
[46] = second compound 3.16 µM, first compound 10 µM
[47] = second compound 10 µM, first compound 3.16 µM
[48] = second compound 10 µM, first compound 10 µM
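Also: spheroids exposed to agents for 7 days before viability reading.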
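For viability, T/C in this document: percent of DMSO vehicle control viability so 100% = vehicle and 0% = no viable signal.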

CCc1c2c(nc3ccc(O)cc13)-c1cc3c(c(=O)n1C2)COC(=O)[C@]3(O)CC + Cc1cccc(N(C)C(=O)C2C(O)CCN2c2nc(C)cc(C(F)(F)F)c2C#N)c1
7.43: pIC50 (second compound 0.1 µM)
7.33: pIC50 (second compound 1 µM)
7.41: pIC50 (second compound 0.0316 µM)
7.31: pIC50 (second compound 0.316 µM)
inactive: viability, T/C [1] 64.4% | viability, T/C [2] 54.2% | viability, T/C [3] 48.2% | viability, T/C [4] 46.4% | viability, T/C [5] 30.4% | viability, T/C [6] 10.9% | viability, T/C [7] 78.5% | viability, T/C [8] 57.1% | viability, T/C [9] 49.8% | viability, T/C [10] 44.9% | viability, T/C [11] 26.1% | viability, T/C [12] 8.04% | viability, T/C [13] 79.2% | viability, T/C [14] 55.2% | viability, T/C [15] 50.5% | viability, T/C [16] 51.6% | viability, T/C [17] 29.1% | viability, T/C [18] 8.39% | viability, T/C [19] 77.9% | viability, T/C [20] 61.1% | viability, T/C [21] 52.3% | viability, T/C [22] 47.4% | viability, T/C [23] 26.1% | viability, T/C [24] 10.2% | viability, T/C [25] 87% | viability, T/C [26] 68.8% | viability, T/C [27] 56.3% | viability, T/C [28] 48.6% | viability, T/C [29] 29.7% | viability, T/C [30] 12.6% | viability, T/C [31] 78.5% | viability, T/C [32] 58% | viability, T/C [33] 51.4% | viability, T/C [34] 47.9% | viability, T/C [35] 33.2% | viability, T/C [36] 9.43%
7.20: pIC50 (second compound 3.16 µM)
7.30: pIC50 (second compound 10 µM)

CC(C)n1c(=O)n(C)c2cnc3cc(F)c(-c4ccc(OCCCN5CCCCC5)nc4)cc3c21 + Nc1ccc(C#CCN(C(=O)Cc2ncc(C(F)(F)F)cc2C(F)(F)F)c2ccc(F)cc2)nn1
< 5.00: pIC50 (second compound 0.0316 µM) | pIC50 (second compound 0.1 µM) | pIC50 (second compound 0.316 µM) | pIC50 (second compound 1 µM) | pIC50 (second compound 3.16 µM) | pIC50 (second compound 10 µM)
inactive: viability, T/C [3] 88.5% | viability, T/C [4] 111% | viability, T/C [5] 93.5% | viability, T/C [6] 97.9% | viability, T/C [37] 104% | viability, T/C [38] 96.8% | viability, T/C [9] 118% | viability, T/C [10] 103% | viability, T/C [11] 106% | viability, T/C [12] 108% | viability, T/C [39] 101% | viability, T/C [40] 86.9% | viability, T/C [15] 98.1% | viability, T/C [16] 105% | viability, T/C [17] 103% | viability, T/C [18] 116% | viability, T/C [41] 104% | viability, T/C [42] 89.5% | viability, T/C [21] 109% | viability, T/C [22] 93.6% | viability, T/C [23] 103% | viability, T/C [24] 111% | viability, T/C [43] 106% | viability, T/C [44] 89% | viability, T/C [27] 116% | viability, T/C [28] 98.2% | viability, T/C [29] 112% | viability, T/C [30] 118% | viability, T/C [45] 108% | viability, T/C [46] 86.2% | viability, T/C [33] 116% | viability, T/C [34] 119% | viability, T/C [35] 121% | viability, T/C [36] 113% | viability, T/C [47] 112% | viability, T/C [48] 91.9%

O=C(Nc1ccc(O)c(NS(=O)(=O)c2ccc(F)cc2)c1)c1ccc(-c2ccccc2)cc1 + Nc1ccc(C#CCN(C(=O)Cc2ncc(C(F)(F)F)cc2C(F)(F)F)c2ccc(F)cc2)nn1
< 5.00: pIC50 (second compound 0.0316 µM) | pIC50 (second compound 0.1 µM) | pIC50 (second compound 0.316 µM) | pIC50 (second compound 1 µM) | pIC50 (second compound 3.16 µM) | pIC50 (second compound 10 µM)
inactive: viability, T/C [3] 101% | viability, T/C [4] 95.9% | viability, T/C [5] 98.2% | viability, T/C [6] 111% | viability, T/C [37] 100% | viability, T/C [38] 62.8% | viability, T/C [9] 89.5% | viability, T/C [10] 102% | viability, T/C [11] 95.2% | viability, T/C [12] 103% | viability, T/C [39] 102% | viability, T/C [40] 59.4% | viability, T/C [15] 116% | viability, T/C [16] 108% | viability, T/C [17] 114% | viability, T/C [18] 101% | viability, T/C [41] 110% | viability, T/C [42] 68.8% | viability, T/C [21] 108% | viability, T/C [22] 103% | viability, T/C [23] 104% | viability, T/C [24] 102% | viability, T/C [43] 102% | viability, T/C [44] 64.7% | viability, T/C [27] 104% | viability, T/C [28] 103% | viability, T/C [29] 103% | viability, T/C [30] 107% | viability, T/C [45] 112% | viability, T/C [46] 67.9% | viability, T/C [33] 110% | viability, T/C [34] 122% | viability, T/C [35] 114% | viability, T/C [36] 103% | viability, T/C [47] 109% | viability, T/C [48] 59.3%

Cn1ncnc1[C@H]1c2n[nH]c(=O)c3cc(F)cc(c23)N[C@@H]1c1ccc(F)cc1 + COC1C(OC(N)=O)C(O)C(Oc2ccc3c(O)c(NC(=O)c4ccc(O)c(CC=C(C)C)c4)c(=O)oc3c2C)OC1(C)C
< 7.00: pIC50 (second compound 0.0316 µM) | pIC50 (second compound 0.1 µM) | pIC50 (second compound 0.316 µM) | pIC50 (second compound 1 µM) | pIC50 (second compound 3.16 µM) | pIC50 (second compound 10 µM)
inactive: viability, T/C (second compound 0.0316 µM, first compound 0.000316 µM) 114% | viability, T/C (second compound 0.0316 µM, first compound 0.001 µM) 86.2% | viability, T/C [1] 101% | viability, T/C [2] 93.4% | viability, T/C [3] 92.9% | viability, T/C [4] 84.8% | viability, T/C (second compound 0.1 µM, first compound 0.000316 µM) 102% | viability, T/C (second compound 0.1 µM, first compound 0.001 µM) 105% | viability, T/C [7] 87.1% | viability, T/C [8] 111% | viability, T/C [9] 85% | viability, T/C [10] 80% | viability, T/C (second compound 0.316 µM, first compound 0.000316 µM) 101% | viability, T/C (second compound 0.316 µM, first compound 0.001 µM) 99.5% | viability, T/C [13] 92.3% | viability, T/C [14] 103% | viability, T/C [15] 87.8% | viability, T/C [16] 83.6% | viability, T/C (second compound 1 µM, first compound 0.000316 µM) 119% | viability, T/C (second compound 1 µM, first compound 0.001 µM) 107% | viability, T/C [19] 101% | viability, T/C [20] 102% | viability, T/C [21] 93.9% | viability, T/C [22] 82.5% | viability, T/C (second compound 3.16 µM, first compound 0.000316 µM) 95.3% | viability, T/C (second compound 3.16 µM, first compound 0.001 µM) 89.3% | viability, T/C [25] 90.9% | viability, T/C [26] 96.9% | viability, T/C [27] 90.8% | viability, T/C [28] 80.8% | viability, T/C (second compound 10 µM, first compound 0.000316 µM) 98.7% | viability, T/C (second compound 10 µM, first compound 0.001 µM) 105% | viability, T/C [31] 93.9% | viability, T/C [32] 103% | viability, T/C [33] 88.4% | viability, T/C [34] 90.4%
